Laboratory results as given in patent US7125842B2, “Anti-fungal compounds and methods of use” (CanBas Co. Ltd., priority 2003, dated 2006).

Experiments:
[1] = system: Candida albicans (ATCC 10231); assay: Minimal growth inhibitory concentration by turbidity, Candida albicans; format: cell-based; conditions: Candida albicans ATCC 10231, fluid Sabouraud medium, 37 degree, turbidity one day after inoculation
Protocol: (§1) Candida albicans was obtained from ATCC (ATCC 10231) and cultured in fluid Sabouraud medium at 37 degree. The turbidity was measured one day after the innoculation and treatment with CBP501 at 0.03, 0.1, 0.3, 1, 3, 10, 30, 100 μg/ml. Candida glabrata was obtained from ATCC (ATCC 36583) and cultured in fluid Sabouraud medium at 28 degree. The turbidity was measured two days after the innoculation and treatment with CBP501 at 0.03, 0.1, 0.3, 1, 3, 10, 30, 100 μg/ml. Cryptococcus neoformans was obtained from ATCC (ATCC 24067) and cultured in fluid Sabouraud medium at 37 degree. The turbidity was measured two days after the innoculation and treatment with CBP501 at 0.03, 0.1, 0.3, 1, 3, 10, 30, 100 μg/ml. Trichophyton mentagroohytes was obtained from ATCC (ATCC 9533) and cultured in potato dextrose broth at 28 degree. The turbidity was measured three days after the innoculation and treatment with CBP501 at 0.03, 0.1, 0.3, 1, 3, 10, 30, 100 μg/ml. Minimal growth inhibitory concentrations were determined as the concentration of minimal CBP501 where the turbidity was not increased (Table 2).

[2] = system: Candida glabrata (ATCC 36583); assay: Minimal growth inhibitory concentration by turbidity, Candida glabrata; format: cell-based; conditions: Candida glabrata ATCC 36583, fluid Sabouraud medium, 28 degree, turbidity two days after inoculation
Protocol: as §1

[3] = system: Cryptococcus neoformans (ATCC 24067); assay: Minimal growth inhibitory concentration by turbidity, Cryptococcus neoformans; format: cell-based; conditions: Cryptococcus neoformans ATCC 24067, fluid Sabouraud medium, 37 degree, turbidity two days after inoculation
Protocol: as §1

[4] = system: Trichophyton mentagroohytes (ATCC 9533); assay: Minimal growth inhibitory concentration by turbidity, Trichophyton mentagroohytes; format: cell-based; conditions: Trichophyton mentagroohytes ATCC 9533, potato dextrose broth, 28 degree, turbidity three days after inoculation
Protocol: as §1

ATM = target: T1, ATM (Homo sapiens, UniProt Q13315); assay: In vitro phosphorylation inhibition, ATM (ELISA); format: biochemical; conditions: CBP501 0.5, 5, 50 uM, 30° C., compared to cyclin-dependent kinases, PKA and PKC (FIG. 1)
T1 construct: ATM and ATR: Full length recombinant human, 293T cells; host or cells: 293T cells
T1 sequence (Q13315 whole entry): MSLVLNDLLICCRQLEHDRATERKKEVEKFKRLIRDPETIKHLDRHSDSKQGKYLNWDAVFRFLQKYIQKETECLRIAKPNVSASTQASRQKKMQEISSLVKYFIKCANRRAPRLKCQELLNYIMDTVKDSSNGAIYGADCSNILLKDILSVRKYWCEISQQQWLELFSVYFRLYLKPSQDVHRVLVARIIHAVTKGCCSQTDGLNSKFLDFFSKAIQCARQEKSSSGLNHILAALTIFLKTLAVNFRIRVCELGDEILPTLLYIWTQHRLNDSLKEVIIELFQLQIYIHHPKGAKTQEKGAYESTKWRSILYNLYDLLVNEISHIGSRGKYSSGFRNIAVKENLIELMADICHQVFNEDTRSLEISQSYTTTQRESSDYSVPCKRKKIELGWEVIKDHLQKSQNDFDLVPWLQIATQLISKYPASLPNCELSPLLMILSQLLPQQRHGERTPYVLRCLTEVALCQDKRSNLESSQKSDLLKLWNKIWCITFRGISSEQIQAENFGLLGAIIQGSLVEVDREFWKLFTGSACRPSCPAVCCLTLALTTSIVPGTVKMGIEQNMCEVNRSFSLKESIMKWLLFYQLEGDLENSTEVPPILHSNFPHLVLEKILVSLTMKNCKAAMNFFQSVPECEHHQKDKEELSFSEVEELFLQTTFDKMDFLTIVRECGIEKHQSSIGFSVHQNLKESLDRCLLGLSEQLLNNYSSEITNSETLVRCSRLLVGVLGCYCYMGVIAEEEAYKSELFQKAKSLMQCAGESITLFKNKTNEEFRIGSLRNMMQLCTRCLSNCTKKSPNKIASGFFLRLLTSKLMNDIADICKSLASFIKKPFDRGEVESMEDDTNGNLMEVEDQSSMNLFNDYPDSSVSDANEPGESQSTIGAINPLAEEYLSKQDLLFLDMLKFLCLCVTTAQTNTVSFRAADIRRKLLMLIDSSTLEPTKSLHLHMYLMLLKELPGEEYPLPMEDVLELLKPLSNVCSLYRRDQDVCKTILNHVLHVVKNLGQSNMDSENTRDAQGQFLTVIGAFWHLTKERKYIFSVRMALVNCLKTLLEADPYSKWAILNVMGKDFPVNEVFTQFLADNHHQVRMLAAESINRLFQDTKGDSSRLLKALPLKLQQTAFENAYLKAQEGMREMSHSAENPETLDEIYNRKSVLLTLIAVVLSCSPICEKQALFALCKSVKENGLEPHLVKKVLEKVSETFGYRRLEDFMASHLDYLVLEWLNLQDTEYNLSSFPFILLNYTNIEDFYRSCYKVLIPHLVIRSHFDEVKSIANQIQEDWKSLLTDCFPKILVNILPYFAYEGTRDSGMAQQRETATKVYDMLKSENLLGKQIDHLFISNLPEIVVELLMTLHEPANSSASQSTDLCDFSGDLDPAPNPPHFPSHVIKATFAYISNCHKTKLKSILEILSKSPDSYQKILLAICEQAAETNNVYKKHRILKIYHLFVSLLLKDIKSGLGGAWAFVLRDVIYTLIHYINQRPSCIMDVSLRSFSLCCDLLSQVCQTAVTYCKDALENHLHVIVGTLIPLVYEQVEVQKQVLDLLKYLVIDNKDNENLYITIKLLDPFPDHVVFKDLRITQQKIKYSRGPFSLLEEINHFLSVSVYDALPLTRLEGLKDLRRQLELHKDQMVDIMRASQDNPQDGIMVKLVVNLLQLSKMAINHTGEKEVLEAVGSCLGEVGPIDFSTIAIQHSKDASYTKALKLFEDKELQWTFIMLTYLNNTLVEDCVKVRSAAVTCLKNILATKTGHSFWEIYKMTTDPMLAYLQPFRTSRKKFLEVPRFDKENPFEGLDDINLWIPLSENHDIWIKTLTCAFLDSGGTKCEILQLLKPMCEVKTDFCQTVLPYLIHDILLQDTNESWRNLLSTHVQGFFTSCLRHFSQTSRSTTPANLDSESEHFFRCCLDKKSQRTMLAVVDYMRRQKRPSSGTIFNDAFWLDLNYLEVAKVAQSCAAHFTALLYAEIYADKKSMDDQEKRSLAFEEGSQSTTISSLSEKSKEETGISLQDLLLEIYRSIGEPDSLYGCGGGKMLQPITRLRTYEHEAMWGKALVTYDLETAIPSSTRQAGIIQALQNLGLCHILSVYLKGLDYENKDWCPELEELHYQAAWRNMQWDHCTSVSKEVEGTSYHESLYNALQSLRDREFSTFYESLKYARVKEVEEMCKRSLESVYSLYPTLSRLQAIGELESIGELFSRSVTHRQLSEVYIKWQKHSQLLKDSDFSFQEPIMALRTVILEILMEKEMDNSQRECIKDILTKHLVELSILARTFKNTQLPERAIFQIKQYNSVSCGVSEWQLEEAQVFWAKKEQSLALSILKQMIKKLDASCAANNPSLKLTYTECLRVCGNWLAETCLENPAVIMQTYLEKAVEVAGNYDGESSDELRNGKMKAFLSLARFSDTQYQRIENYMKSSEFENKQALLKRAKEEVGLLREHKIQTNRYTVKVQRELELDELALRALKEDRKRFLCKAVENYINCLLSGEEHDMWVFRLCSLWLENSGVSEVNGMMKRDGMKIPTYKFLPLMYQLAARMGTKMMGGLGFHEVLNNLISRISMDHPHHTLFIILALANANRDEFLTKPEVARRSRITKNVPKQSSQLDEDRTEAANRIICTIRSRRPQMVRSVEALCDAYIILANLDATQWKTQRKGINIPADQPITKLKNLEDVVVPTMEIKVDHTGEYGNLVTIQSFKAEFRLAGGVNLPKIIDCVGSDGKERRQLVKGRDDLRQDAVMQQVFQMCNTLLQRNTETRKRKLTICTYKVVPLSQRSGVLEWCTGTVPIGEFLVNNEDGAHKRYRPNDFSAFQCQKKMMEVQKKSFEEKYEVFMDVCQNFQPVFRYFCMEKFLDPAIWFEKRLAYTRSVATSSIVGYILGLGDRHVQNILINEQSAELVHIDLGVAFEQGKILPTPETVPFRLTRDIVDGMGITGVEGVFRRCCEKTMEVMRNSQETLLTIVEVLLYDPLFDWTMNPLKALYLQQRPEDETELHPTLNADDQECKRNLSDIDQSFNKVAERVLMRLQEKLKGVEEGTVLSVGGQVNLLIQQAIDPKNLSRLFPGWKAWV
Protocol: (§2) Source of kinases, measurement method, substrate, first antibody, second antibody, reaction buffer, reaction volume, ATP concentration, and reaction time are as follows. ATM and ATR: Full length recombinant human, 293T cells, enzyme linked immunosorbent assay (ELISA), GST-p53 (aal -99), anti-p53-phosphorylated Serl 5, Horse radish peroxidase (HRP)-labeled anti-rabbit IgG, 1×Mg/Mn kinase buffer (20 mM Hepes-KOH (pH7.5), 1 mM DTT, 80 ug/ml BSA, 10 mM MgCl2, 10 mM MnCl2), 50 ul, 100 uM, and 60 min. Chk1, Chk2 and c-Tak1: Full length recombinant human from SF-9 cells for Chk1, Full length recombinant human from E. Coli for Chk2 and Full length recombinant human from SF-9 cells for c-Tak1, respectively, ELISA, GST-Cdc25C (aa167–267), anti-Cdc25C-phosphorylated Ser216, HRP-labelled anti-mouse IgG, 1×Mg kinase buffer (20 mM Hepes-KOH (pH7.5), 1 mM DTT, 80 ug/ml BSA, 10 mM MgCl2), 50 ul, 50 uM, and 60 min. PLK-1: Human full length GST fusion, E. Coli, ELISA, GST fusion protein Y, Anti-phosphorylated Ser/Thr monoclonal, HRP-labelled anti-mousr IgG, 1×Mg kinase buffer, 30 ul, 50 uM, and 60 min. […]
(§3) All incubations were at 30° C. […] The phosphorylated substrate was detected with either ELISA or RIA as described above. […] The quantity of phosphorylated substrate for each kinase reaction without CBP501 was nominated as 100%.

ATR = target: T2, ATR (Homo sapiens, UniProt Q13535); assay: In vitro phosphorylation inhibition, ATR (ELISA); format: biochemical; conditions: CBP501 0.5, 5, 50 uM, 30° C., compared to cyclin-dependent kinases, PKA and PKC (FIG. 1)
T2 construct: ATM and ATR: Full length recombinant human, 293T cells; host or cells: 293T cells
Protocol: as §2, §3

CHK1 = target: T3, CHK1 (Homo sapiens, UniProt O14757); assay: In vitro phosphorylation inhibition, CHK1 (ELISA); format: biochemical; conditions: CBP501 0.5, 5, 50 uM, 30° C., compared to cyclin-dependent kinases, PKA and PKC (FIG. 1)
T3 construct: Full length recombinant human from SF-9 cells for Chk1; host or cells: SF-9 cells
T3 sequence (O14757 1-476): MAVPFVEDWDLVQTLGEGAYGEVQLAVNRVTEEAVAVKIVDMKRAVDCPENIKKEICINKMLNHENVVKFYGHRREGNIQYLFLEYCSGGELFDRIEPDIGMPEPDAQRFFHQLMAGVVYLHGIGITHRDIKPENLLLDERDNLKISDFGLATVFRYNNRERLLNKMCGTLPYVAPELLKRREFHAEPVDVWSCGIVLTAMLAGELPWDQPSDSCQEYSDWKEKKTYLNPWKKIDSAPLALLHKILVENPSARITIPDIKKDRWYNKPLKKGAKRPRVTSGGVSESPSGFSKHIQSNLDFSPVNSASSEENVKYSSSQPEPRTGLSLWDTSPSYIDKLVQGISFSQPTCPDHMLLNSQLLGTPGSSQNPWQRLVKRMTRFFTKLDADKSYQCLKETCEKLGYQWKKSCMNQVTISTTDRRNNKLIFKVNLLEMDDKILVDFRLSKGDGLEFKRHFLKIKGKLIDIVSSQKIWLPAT
Protocol: as §2, §3

CHK2 = target: T4, CHK2 (Homo sapiens, UniProt O96017); assay: In vitro phosphorylation inhibition, CHK2 (ELISA); format: biochemical; conditions: CBP501 0.5, 5, 50 uM, 30° C., compared to cyclin-dependent kinases, PKA and PKC (FIG. 1)
T4 construct: Full length recombinant human from E. Coli for Chk2; host or cells: E. coli
T4 sequence (O96017 whole entry): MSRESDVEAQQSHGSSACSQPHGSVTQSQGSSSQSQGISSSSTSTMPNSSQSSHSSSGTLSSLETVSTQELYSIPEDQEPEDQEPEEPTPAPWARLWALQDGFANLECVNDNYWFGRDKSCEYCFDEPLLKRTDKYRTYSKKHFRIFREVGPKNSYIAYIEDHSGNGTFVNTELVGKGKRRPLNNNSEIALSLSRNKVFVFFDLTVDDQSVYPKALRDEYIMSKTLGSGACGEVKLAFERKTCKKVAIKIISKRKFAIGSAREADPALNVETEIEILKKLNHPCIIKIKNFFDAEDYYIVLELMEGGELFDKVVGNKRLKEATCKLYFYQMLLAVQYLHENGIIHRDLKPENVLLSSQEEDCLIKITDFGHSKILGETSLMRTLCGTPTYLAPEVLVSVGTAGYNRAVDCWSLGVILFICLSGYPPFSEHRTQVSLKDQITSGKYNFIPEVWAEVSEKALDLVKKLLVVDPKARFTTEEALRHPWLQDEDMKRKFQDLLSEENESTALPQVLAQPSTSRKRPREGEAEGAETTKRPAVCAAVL
Protocol: as §2, §3

PLK1 = target: T5, PLK1 (Homo sapiens, UniProt P53350); assay: In vitro phosphorylation inhibition, PLK1 (ELISA); format: biochemical; conditions: CBP501 0.5, 5, 50 uM, 30° C., compared to cyclin-dependent kinases, PKA and PKC (FIG. 1)
T5 construct: PLK-1: Human full length GST fusion, E. Coli; GST; host or cells: E. coli
T5 sequence (P53350 whole entry, the tested form may be a part): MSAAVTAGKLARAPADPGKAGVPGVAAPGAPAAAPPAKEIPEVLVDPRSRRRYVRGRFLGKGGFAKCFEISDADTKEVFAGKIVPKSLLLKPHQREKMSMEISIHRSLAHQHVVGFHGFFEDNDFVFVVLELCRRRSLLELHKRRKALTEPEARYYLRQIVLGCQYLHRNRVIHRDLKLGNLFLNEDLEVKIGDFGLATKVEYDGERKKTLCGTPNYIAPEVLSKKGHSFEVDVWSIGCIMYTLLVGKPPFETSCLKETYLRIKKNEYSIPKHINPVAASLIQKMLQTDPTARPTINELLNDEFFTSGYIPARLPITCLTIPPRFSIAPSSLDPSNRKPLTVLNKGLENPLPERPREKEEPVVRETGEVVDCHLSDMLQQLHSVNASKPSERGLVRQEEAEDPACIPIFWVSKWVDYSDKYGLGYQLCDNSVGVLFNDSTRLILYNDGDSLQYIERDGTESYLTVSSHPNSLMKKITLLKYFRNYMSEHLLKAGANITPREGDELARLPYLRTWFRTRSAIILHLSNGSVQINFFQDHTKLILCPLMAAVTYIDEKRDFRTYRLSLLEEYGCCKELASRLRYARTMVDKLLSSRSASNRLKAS
Protocol: as §2, §3

Wee1 = target: T6, Wee1 (Homo sapiens, UniProt P30291); assay: In vitro phosphorylation inhibition, Wee1 (ELISA); format: biochemical; conditions: CBP501 0.5, 5, 50 uM, 30° C., compared to cyclin-dependent kinases, PKA and PKC (FIG. 1)
T6 construct: Weel: Human fulllength recombinant with GST fusion, E. Coli; GST; host or cells: E. coli
T6 sequence (P30291 whole entry, the tested form may be a part): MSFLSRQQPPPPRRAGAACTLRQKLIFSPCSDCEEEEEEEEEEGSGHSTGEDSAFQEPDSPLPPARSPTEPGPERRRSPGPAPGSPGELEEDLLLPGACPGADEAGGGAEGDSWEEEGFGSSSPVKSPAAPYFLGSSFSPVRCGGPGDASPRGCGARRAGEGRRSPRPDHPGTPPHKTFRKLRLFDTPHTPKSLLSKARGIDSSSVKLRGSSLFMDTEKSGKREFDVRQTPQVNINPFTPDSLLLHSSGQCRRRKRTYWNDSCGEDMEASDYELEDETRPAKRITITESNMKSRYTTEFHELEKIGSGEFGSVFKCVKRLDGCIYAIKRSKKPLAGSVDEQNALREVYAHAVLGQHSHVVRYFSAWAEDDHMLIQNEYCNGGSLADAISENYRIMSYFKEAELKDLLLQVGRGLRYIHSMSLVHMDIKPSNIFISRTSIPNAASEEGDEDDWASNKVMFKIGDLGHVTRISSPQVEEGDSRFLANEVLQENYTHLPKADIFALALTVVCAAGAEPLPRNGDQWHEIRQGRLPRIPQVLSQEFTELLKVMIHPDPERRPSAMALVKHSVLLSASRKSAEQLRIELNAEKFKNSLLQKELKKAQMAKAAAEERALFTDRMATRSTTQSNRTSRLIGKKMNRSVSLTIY
Protocol: as §2, §3

yeast AH109 = assay: Growth inhibition of yeast AH109 on YAPD plate; format: cell-based, Saccaromices Cerevisie; conditions: 1 hr incubation at 30° in liquid YAPD, then 3 days on YAPD agarose plate (FIG. 2)
Protocol: Cell culture Saccaromices Cerevisie AH109 was purchased from CLONTECH (Palo Alto, Calif.). YAPD plates were prepared using YPD agar purchased from CLONTECH and adenine purchased from Sigma-Aldrich Co. The cells were cultured at 30 degree.
Logarithmically growing yeast AH109 in liquid medium (YAPD) was diluted to 1 to 10 with warm liquid YAPD medium with or without CBP501 and/or amphotericin B at the indicated doses. After 1 hr incubation at 30° whole solution was poured onto the YAPD agarose plate. The plate was then incubated 3 days and the samples were phtographed (FIG. 2).

(d-Bpa)(d-Ser)(d-Trp)(d-Ser) (d-Phe2,3,4,5,6-F)(d-Cha)(d-Arg)(d-Arg)(d-Arg)(d-Gln)(d-Arg)(d-Arg) [CBP501]
MIC (minimul inhibitory concentration) [1]: 100 µg/mL
MIC (minimul inhibitory concentration) [2]: 30 µg/mL
MIC (minimul inhibitory concentration) [3]: 1 µg/mL
MIC (minimul inhibitory concentration) [4]: 100 µg/mL
inhibition of kinase activity (phosphorylation of substrate) (ATM): strongly inhibited
inhibition of kinase activity (phosphorylation of substrate) (ATR): strongly inhibited
inhibition of kinase activity (phosphorylation of substrate) (CHK1): strongly inhibited
inhibition of kinase activity (phosphorylation of substrate) (CHK2): strongly inhibited
inhibition of kinase activity (phosphorylation of substrate) (PLK1): strongly inhibited
inhibition of kinase activity (phosphorylation of substrate) (Wee1): strongly inhibited
growth of yeast AH109 on YAPD plate (yeast AH109): growth inhibition
